Data from BindingDB's records for doi:10.1016/j.ejmech.2020.113116 (University of Pisa, 2021).

Columns and labels:
[1] = Positive allosteric modulator activity at human CB2R expressed in CHO-K1 cell membrane assessed as CP55940 EC50 for [35S]GTPgammaS binding at 100 nM measured after 90 mins by liquid scintillation counting analysis (Rvb = 1.9 nM)
[2] = Positive allosteric modulator activity at human CB2R expressed in CHO-K1 cell membrane assessed as CP55940 EC50 for [35S]GTPgammaS binding at 1 nM measured after 90 mins by liquid scintillation counting analysis (Rvb = 1.9 nM)

EC50 [1]	EC50 [2]	SMILES
2.4 nM	2.6 nM	Cc1c(Br)cn(Cc2ccccc2Cl)c(=O)c1NC(=O)C1CCCCCC1
7 nM	3.4 nM	Cc1c(Br)cn(Cc2ccccc2F)c(=O)c1NC(=O)C1CCCCCC1
